In patent publication US6465614B1, “High-affinity response-selective C-terminal analogs of C5a anaphylatoxin” (priority 1994, dated 2002):
Read-outs that look alike come from different tables or passages of the source. Square brackets hold non-standard residues; d marks the D form. Ends that are not written are not given here. Peptide text beside a SMILES is read from it.

T1: human neutrophils (PMN) (Homo sapiens, UniProt P21730)
T1 sequence (P21730 1-350): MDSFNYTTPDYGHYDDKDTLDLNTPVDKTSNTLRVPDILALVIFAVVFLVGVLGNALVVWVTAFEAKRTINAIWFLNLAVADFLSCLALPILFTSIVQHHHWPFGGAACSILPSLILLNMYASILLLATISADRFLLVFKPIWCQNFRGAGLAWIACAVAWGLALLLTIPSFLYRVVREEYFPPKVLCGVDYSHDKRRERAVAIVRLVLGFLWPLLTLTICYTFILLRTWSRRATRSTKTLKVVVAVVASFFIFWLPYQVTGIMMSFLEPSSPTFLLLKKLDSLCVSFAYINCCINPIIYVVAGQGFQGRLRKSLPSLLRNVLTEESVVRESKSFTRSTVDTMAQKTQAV

T2: human fetal artery (Homo sapiens, UniProt P21730)
T2 sequence (P21730 1-350): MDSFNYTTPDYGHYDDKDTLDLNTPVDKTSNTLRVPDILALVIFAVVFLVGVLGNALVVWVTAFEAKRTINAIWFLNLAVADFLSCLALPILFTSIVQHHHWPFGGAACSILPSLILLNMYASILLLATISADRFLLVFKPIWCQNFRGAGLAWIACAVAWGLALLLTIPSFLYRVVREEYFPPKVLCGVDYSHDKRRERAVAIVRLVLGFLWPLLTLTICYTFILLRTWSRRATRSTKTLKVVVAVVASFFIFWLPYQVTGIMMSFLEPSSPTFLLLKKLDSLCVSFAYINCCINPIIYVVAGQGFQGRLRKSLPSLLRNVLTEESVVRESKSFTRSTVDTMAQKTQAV


Experiments:
[1] = tested on: guinea-pig platelets; experiment: Guinea-pig platelet aggregation assay; type: cell-based; details: for Platelet Aggreg (threshold concentration producing visible platelet aggregation): guinea-pig platelets, threshold response
Procedure: This assay was performed on platelets obtained from the arterial blood of anesthetized male Hartley guinea pigs according to previously published methods (Ember et al., 1992, supra). Briefly, platelet-rich plasma was prepared and diluted to 3×10^8 platelets/ml in 0.39% sodium citrate solution. Peptide samples were diluted in a stepwise fashion in 1.5-fold dilutions and placed in 96-well microplates. A […] peptide sample, […] of platelet-rich plasma, and one 3 mm glass bead were placed in each well. The plates were shaken horizontally at 100 rpm for 5 min at 37° C. Platelet aggregation was evaluated visually in an inverted microscope at 40× magnification. The greatest dilution of peptide producing visible aggregation was scored as the threshold concentration for activity. Natural C5a and C3a were included as internal standards. At least three independent duplicate determinations were conducted for every peptide.

[2] = molecular target: T1, human neutrophils (PMN); type: cell-based
Procedure: Neutrophil polarization assays were conducted as described by Ember et al., 1992, supra. Human neutrophils (PMN) were prepared according to the procedure described by Dahinden et al. (1979), J. Immunol., 130: 857-862. The assay for measuring the effect of C5a analogs on PMN polarization was described by Haston & Shields (1985), J. Immunol. Methods, 81: 229-237. Briefly, PMN (1×10^6 cells/ml) were suspended in 10 mM 3- (N-morpholino) propane sulfonic acid (Sigma Chemical Co.) containing EBSS. […] After 10 minutes of incubation at room temperature, the cells were washed twice and stored until microscopic examination. Cells deviating from the typical spherical shape were visually scored as polarized. Results are expressed as percent of polarized cells per total cells counted (300 cells counted/sample).

[3] = molecular target: T1, human neutrophils (PMN); type: cell-based; remark: listed apart in the source
Procedure: The release of glucuronidase from human neutrophils was determined as described by Schroder et al. (1987), J. Immunol., 139: 3474-3483. Briefly, human neutrophils were pretreated with cytochalasin B (5 μg/ml, 10 min, 37° C.). The cells (10^6) were incubated in the presence of stimulants for 60 minutes at 37° C. in a final volume of 200 μl and then centrifuged. The supernatant was collected and 50 μl were incubated with 50 μl of 0.01 M P-nitrophenyl-β-D-glucuronide (in 0.1 M sodium acetate at pH 4 for 18 h) as triplicate determinations in 96-well microtiter plates (Corning). The reaction was stopped by addition of 100 μl of 0.4 M gly buffer at pH 10. The reaction developed color that was read at 405 nm in a Titertec Multiscan (MCC/340) ELISA reader. The β-glucuronidase released was expressed as the percentage of total enzyme in the cell that could be released by addition of 0.2% Triton X-100 (Pierce).

[4] = molecular target: T2, human fetal artery; experiment: Smooth muscle contraction of human fetal artery (spasmogenic assay); type: cell-based
Procedure: Tissue strips were suspended in 2 ml organ baths, containing physiological salt solution (Krebs-Ringers solution: 118 mM NaCl, 4.7 mM KCl, 2.5 mM CaCl2, 25 mM NaHCO3, 1.2 mM KH2PO4, 1.2 mM MgSO4, 10 mM Glucose) maintained at 37° C., pH 7.4 and continuously aerated with a […] mixture. Each tissue preparation was equilibrated for 1 hr prior to testing with peptides. All drugs were kept on ice during the procedure and isometric tensions were measured using strain-gauge transducers (Grass FT-03) with a computerized chart recording system (MacLab/8). After the contraction to each peptide reached a plateau, histamine (10 μM) was added to obtain the maximum tissue response. Because tachyphylaxis occurs rapidly to single doses of C5a or peptides, cumulative dose-response curves could not be obtained. Instead, the dose-response profile was compiled from multiple strips from each tissue. After exposing each strip to a single concentration of the peptide followed by supramaximal histamine, the response was expressed as a percentage of the maximal contraction to histamine. Full dose-response curves for C5a (human recombinant C5a; Sigma) or individual peptides were performed in each experiment for each tissue and the EC50 values (i.e., concentration of peptide producing 50t of the maximal response to each peptide) obtained by probit analysis. pD2 transforms [−log EC50 (M)] were calculated for each dose-response curve, and means ±SE obtained for each peptide.
Human umbilical cords were obtained from the Mater Misericordiae Hospital, South Brisbane, Queensland within minutes of delivery. The mid-section of the umbilical cord was cut from the placenta, placed in physiological salt solution and stored at 5° C. for up to 24 hrs. […] The fetal arteries were dissected out and cut into longitudinal strips. The intimal surface of the arteries was rubbed with a cotton bud to remove the endothelium. Strips approximately 2 cm×3 mm were suspended in organ baths under 20 mN of resting tension. Arterial strips were tested repeatedly with peptides following a 60 min drug-free period of rest between assays (Taylor et al. (1994), Inflammation, in press).

[5] = tested on: serum carboxypeptidases; experiment: Stability toward serum carboxypeptidases (incubation in normal human serum, HPLC); type: in vitro ADME; details: 37° C., 1 h
Procedure: FIG. 10. HPLC profiles of decapeptide analogs. FIG. 10A: HPLC of […] (peptide/Sequence I.D. No. 2); a=purified peptide; b=des-Arg peptide ([…]; Sequence I.D. No. 24); c=des-Arg peptide in saline, no incubation; d=des-Arg peptide in saline with incubation for 1 h at 37° C.; e=des-Arg peptide in normal human serum with incubation for 1 h at 37° C. FIG. 10B: HPLC of […]aR (Sequence I.D. No. 10); a=purified peptide; b=peptide in saline, no incubation; c=peptide in saline with incubation for 1 h at 37° C.; d=peptide in normal human serum with incubation for 1 h at 37° C. Solvent system 1: 70 mM triethylamine/phosphoric acid buffer, pH-2.3. Solvent system 2: 60% acetonitrile in the Solvent 1 buffer. Linear gradient of 30-50% solvent 2 at.1%/min, slope=1 ml/min, absorbance monitored at 214 nm.
Both peptides were incubated in normal human serum at 37° C. for 1 h and thereafter reanalyzed on HPLC.

Molecule	Platelet Aggreg (threshold concentration producing visible platelet aggregation) [1]	EC50 [2]	further results
YSFKDMQIGR [peptide 9]	150 µM	–	–
YSFKGMPLGR-OH [peptide 23]	6.3 µM	2 µM	EC50 [3]: 49.6 µM
YSFKGMLLGR-OH [peptide 20]	10.5 µM	–	potency compared with peptide 2 in human fetal artery ([4]; in words): about two times more potent; potency compared with peptide 2 in guinea-pig platelet assay ([1]; in words): about two times more potent
CSCC[C@H](NC(=O)[C@H](CC(=O)O)NC(=O)[C@H](CCCCN)NC(=O)[C@H](Cc1ccccc1)NC(=O)[C@H](CO)NC(=O)[C@@H](N)Cc1ccc(O)cc1)C(=O)N[C@@H](CCC(N)=O)C(=O)N[C@@H](CC(C)C)C(=O)N[C@H](C)C(=O)N[C@@H](CCCNC(=N)N)C(=O)O [peptide 8]	20 µM	1.2 µM	EC50 [3]: 32 µM
CSCC[C@H](NC(=O)CNC(=O)[C@H](CCCCN)NC(=O)[C@H](Cc1ccccc1)NC(=O)[C@H](CO)NC(=O)[C@@H](N)Cc1ccc(O)cc1)C(=O)N[C@@H](CC(C)C)C(=O)N[C@@H](CC(C)C)C(=O)NCC(=O)N[C@H](CCCNC(=N)N)C(=O)O [peptide 22] (HELM PEPTIDE1{Y.S.F.K.G.M.L.L.G.[dR]}$$$$V2.0; N-terminus and C-terminus assumed)	–	–	agonist character compared to natural C5a in spasmogenic assays ([4]; in words): full agonist of diminished potency; antagonist activity against C5a ([4]; tested at concentrations below those causing contraction or aggregation): devoid of any antagonistic activity
ISFKDMQLGR-OH [peptide 1]	86.3 µM	–	–
YSFKPMQLaR (YSFKPMQL[dA]R) [peptide 24]	–	–	potency relative to natural C5a for elicitation of a spasmogenic response (Class 1) ([4]; smooth muscle contraction assay, percent of natural/full C5a potency): 20-30%
YSFKDAPLGR-OH [peptide 15]	7.4 µM	–	–
YSFKDMPPGR-OH [peptide 6]	80 µM	50 µM	EC50 [3]: 700 µM
CSCC[C@H](NC(=O)[C@H](CC(=O)O)NC(=O)[C@H](CCCCN)NC(=O)[C@H](Cc1ccccc1)NC(=O)[C@H](CO)NC(=O)[C@@H](N)Cc1ccc(O)cc1)C(=O)N[C@@H](CCC(N)=O)C(=O)N[C@@H](CC(C)C)C(=O)N[C@@H](C)C(=O)N[C@@H](CCCNC(=N)N)C(=O)O [peptide 7]	34 µM	48 µM	EC50 [3]: 1000 µM
CC(C)C[C@H](NC(=O)[C@@H]1CCCN1C(=O)[C@H](CS)NC(=O)[C@H](CC(=O)O)NC(=O)[C@H](CCCCN)NC(=O)[C@H](Cc1ccccc1)NC(=O)[C@H](CO)NC(=O)[C@@H](N)Cc1ccc(O)cc1)C(=O)N[C@@H](CS)C(=O)N[C@@H](CCCNC(=N)N)C(=O)O [peptide 17] (H-YSFKDCPLCR-OH; N-terminus assumed)	4.1 µM	224 µM	–
YSFKDCPLGR-OH [peptide 16]	2.3 µM	19.5 µM	–
YSFKDMQPGR-OH [peptide 4]	500 µM	–	–
YSFKDMPAGR-OH [peptide 11]	101 µM	215 µM	–
YSFKGLLLGR-OH [peptide 21]	21 µM	–	–
YSFKDMPLGR-OH [peptide 5]	6.3 µM	–	increase in potency in spasmogenic and aggregatory activities relative to peptide 2 ([4]; across spasmogenic and platelet aggregation assays (Tables 2 and 3)): 4- to 10 fold; log potency ratio at the EC50 level compared to C5a ([4]; fetal artery): 2.01±0.12; % of C5a potency ([4]; fetal artery, from log potency ratio at EC50 level): 1%
YSFKDMQLGR [peptide 2]	–	–	cleavage of the C-terminal Arg [5]: significant cleavage
YSFKDMQLPR-OH [peptide 3]	225 µM	500 µM	–
CC(C)C[C@@H]1NC(=O)[C@@H]2CCCN2C(=O)[C@@H](NC(=O)[C@H](CC(=O)O)NC(=O)[C@H](CCCCN)NC(=O)[C@H](Cc2ccccc2)NC(=O)[C@H](CO)NC(=O)[C@@H](N)Cc2ccc(O)cc2)CSSC[C@@H](C(=O)N[C@@H](CCCNC(=N)N)C(=O)O)NC1=O [peptide 18] (HELM PEPTIDE1{Y.S.F.K.D.C.P.L.C.R}$PEPTIDE1,PEPTIDE1,6:R3-9:R3$$$V2.0)	>410 µM	–	–
C5a: C5a anaphylatoxin, 74-residue human glycoprotein; human recombinant C5a (Sigma) or natural C5a used as standard (protein, UniProt P01031 678-751, looked up, C5a anaphylatoxin, C5a anaphylatoxin, 74-residue human glycoprotein; human recombinant C5a (Sigma) or natural C5a used as standard) C5a anaphylatoxin: TLQKKIEEIAAKYKHSVVKKCCYDGACVNNDETCEQRAARISLGPRCIKAFTECCVVASQLRANISHKDMQLGR	0.023 µM	–	EC50 ([4]; human fetal artery contraction, mean EC50 from individual experiments): 18 nM; EC50 ([2]; human neutrophils, read-out: PMN Polarization EC50): 0.0013 µM; EC50 ([3]; human neutrophils, β-glucuronidase release, read-out: PMN Enzyme Release EC50): 0.0123 µM
